Read-outs that look alike come from different tables or passages of the source.
Assays:
[1] = tested on: haematological malignancies; conditions: cited from earlier work
PI3K-γ = PI3K-γ (Mus musculus (Mouse), UniProt Q9JHG7); experiment: Raw264.7 p110 γ assay (C5a-mediated phospho-AKT in RAW264.7 macrophages); type: cell-based
Excerpt: Briefly, serum-starved RAW264.7 cells are stimulated with a known GPCR agonist C5a. […] Cells can be treated with test compounds prior to, simultaneously with, or subsequent to the stimulation by C5a. RAW 264.7 cells respond to the complement component fragment C5a through activation of the C5a receptor, and the C5a receptor activates macrophages and induces cell migration.

PI3K γ = PI3K γ (Homo sapiens (Human), UniProt P48736); experiment: PI3-Kinase Promega ADP-Glo Max assay, γ isoform; type: biochemical
Method: Promega ADP-Glo Max assay kit (Cat. No. V7002) was utilized to determine IC50 values for α, β, δ and γ isoforms of human Class I PI3 kinases (Millipore). […] Reactions were incubated at room temperature for 2 hours followed by addition of 25 uL of stop solution. After a 40-minute incubation at room temperature, 50 uL of Promega detection mix was added followed by incubation for 1 hour at room temperature. Plates were then read on Envision plate reader in luminescence mode. Data was converted to % inhibition using the following equation below:
[formula] where S is the sample luminescence, Pos is a positive control without added PI3K, Neg is the negative control without added compound. Data was then plotted as % inhibition vs compound concentration.

PI3K-δ = PI3K-δ (Homo sapiens (Human), UniProt O00329); experiment: RAJI p110 δ assay (phospho-AKT in anti-human IgM stimulated RAJI cells); type: cell-based
Sequence of PI3K-δ (O00329 whole entry): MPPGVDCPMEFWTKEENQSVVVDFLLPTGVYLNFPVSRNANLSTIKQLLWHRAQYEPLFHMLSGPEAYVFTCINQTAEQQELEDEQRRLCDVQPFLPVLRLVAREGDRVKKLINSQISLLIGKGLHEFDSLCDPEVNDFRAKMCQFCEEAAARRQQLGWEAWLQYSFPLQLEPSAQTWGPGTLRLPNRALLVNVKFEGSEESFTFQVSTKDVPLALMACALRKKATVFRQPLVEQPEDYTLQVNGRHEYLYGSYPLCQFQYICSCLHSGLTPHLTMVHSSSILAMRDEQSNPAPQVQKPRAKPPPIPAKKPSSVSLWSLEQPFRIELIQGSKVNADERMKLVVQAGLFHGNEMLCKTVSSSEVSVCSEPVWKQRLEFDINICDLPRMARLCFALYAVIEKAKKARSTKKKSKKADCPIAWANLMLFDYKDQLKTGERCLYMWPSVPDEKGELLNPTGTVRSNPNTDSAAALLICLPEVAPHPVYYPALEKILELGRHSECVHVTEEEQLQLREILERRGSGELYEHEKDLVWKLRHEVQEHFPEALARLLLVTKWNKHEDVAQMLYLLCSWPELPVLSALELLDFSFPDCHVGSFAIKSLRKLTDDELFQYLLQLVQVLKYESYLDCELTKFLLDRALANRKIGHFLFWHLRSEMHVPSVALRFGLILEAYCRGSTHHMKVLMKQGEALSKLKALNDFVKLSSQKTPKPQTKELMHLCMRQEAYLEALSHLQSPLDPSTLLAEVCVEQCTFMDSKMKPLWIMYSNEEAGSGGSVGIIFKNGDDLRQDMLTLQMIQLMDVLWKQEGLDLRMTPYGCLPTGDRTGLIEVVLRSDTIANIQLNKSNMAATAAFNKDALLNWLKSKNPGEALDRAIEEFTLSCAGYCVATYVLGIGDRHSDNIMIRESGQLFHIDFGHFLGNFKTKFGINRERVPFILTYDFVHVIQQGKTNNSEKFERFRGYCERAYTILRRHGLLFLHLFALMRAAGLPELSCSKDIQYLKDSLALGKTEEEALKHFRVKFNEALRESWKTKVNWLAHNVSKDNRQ
Sequence of PI3K-δ (P27986 whole entry partner): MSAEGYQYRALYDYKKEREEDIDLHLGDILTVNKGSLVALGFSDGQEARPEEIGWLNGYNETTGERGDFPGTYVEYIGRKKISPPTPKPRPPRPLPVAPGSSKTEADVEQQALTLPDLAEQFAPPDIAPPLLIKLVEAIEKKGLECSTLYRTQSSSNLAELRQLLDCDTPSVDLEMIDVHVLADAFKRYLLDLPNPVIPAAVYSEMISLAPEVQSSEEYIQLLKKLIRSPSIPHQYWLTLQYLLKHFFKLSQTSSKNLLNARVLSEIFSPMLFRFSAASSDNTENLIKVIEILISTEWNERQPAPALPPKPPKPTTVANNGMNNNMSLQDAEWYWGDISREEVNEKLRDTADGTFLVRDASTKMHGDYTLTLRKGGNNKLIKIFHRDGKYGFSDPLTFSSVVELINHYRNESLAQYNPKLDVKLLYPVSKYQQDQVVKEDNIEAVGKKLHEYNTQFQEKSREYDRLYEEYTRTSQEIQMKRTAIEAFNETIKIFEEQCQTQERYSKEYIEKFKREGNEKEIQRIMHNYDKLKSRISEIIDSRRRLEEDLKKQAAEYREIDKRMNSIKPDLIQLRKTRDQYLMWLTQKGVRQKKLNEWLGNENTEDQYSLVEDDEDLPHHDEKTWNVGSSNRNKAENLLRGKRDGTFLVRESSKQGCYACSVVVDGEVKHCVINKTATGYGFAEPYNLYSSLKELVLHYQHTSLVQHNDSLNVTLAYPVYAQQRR
Method: Reduction of phospho-AKT is indicative of compounds that may inhibit B-cell proliferation and function in certain diseases.
Certain compounds provided herein were tested in RAJI cell model using procedures as described above.

[2] = Pharmacokinetics of Compound 88 in female C57 mice, PO; type: in vivo, mouse; conditions: for tlast / AUC: female C57 mice; for AUC: mouse, plasma, read-out: AUC0_INF
Method: Animals were weighed daily prior to dosing. […] On subsequent dosing days, the animals' condition was noted prior to dosing; the animals were observed within 4 hours of dosing, and at the end of the day.
Samples were collected at pre-dose 0.25, 0.5, 1, 2, 4, 6 and 24 h following the first dose on day 1 and pre-dose (trough), 0.25, 0.5, 1, 2, 4, 6 and 24 h following the final dose on day 3. Animals received a single oral dose daily for 3 consecutive days. Blood was collected by retro-orbital bleeding for all time points on day 1. All other blood sampling was collected by a cardiac puncture. Blood was collected into K2EDTA tubes and placed on wet ice. Within 15 min of collection, the sample was centrifuged at 10,000 rpm at 4° C. for 10 min in a bench top centrifuge and the plasma transferred to a new microcentrifuge tube.
A similar study was carried out using Compound 88. […] Below is a table that details the results for Compound 88: […]

[3] = Oral PK in the rat LPS studies (free plasma concentration); type: in vivo; conditions: for Free Plasma Conc (nM): p.o. 0.2 mg/kg
Method: (§1) This study also includes assessment of the exposure to the compounds in plasma and lung tissues.
(§2) Ref C is budesonide p.o. The compound was administered p.o. and about 1 hour later, LPS was administered intra-tracheally and plasma was collected. After about 5 hours, plasma and bronchoalveolar lavage samples were collected.

[4] = tested on: LPS-induced neutrophil influx into BALF; experiment: LPS-induced neutrophilia in rats, oral administration; type: in vivo; conditions: rat, p.o., 4 hours post-LPS challenge; dose dependent
Method: as §1, §2

human T cells = experiment: Concanavalin A-induced model for activation of human T cells (IFN-γ); type: cell-based
[5] = tested on: CXCL12 induced p-AKT in bone marrow derived macrophages; experiment: CXCL12-induced p-AKT induction assay in differentiated, polarized macrophages; type: cell-based, mouse
Excerpt: Long bones from young C57B6 mice were harvested and bone marrow was extruded by gentle lavage of the bone marrow cavities with a 28 gauge needle. Red blood cells were removed using red blood cell lysis buffer (Sigma). Bone marrow cells were differentiated to macrophages using MCSF for 6 days (RPMI and 20% FCS) with one media change (with removal of all non-adherent cells) at day 3. Macrophages were polarized into M0 (MCSF), M1 (MCSF, IFNγ, and LPS for 1 day), or M2 (MCSF, IL4 for 2 days).
Polarized macrophages were lifted with Acutase, and plated at 0.5M cells per well (0.5 ml) in a deep well (2 ml) non adherant plate in polarization media for 1 hour. […] CXCL12 was added, and the cells were mixed on a plate shaker for 2 minutes. 1 ml of 37 degree FACS Lyse/fix buffer (BD bioscience) was added and the plate was mixed for 1 minute. The plates were spun and decanted and frozen at −80° C. Phospho AKT staining with anti Phospho AKT 473 PERCP labeled (Cell Signaling Technologies) was performed and measured by flow cytometry. Total cell MFI was used to calculate the effect of tested compound on CXCL12 induction of phospho AKT.

[6] = tested on: IL-8 induced neutrophil migration; experiment: IL-8 driven murine air pouch model; type: in vivo; conditions: mouse; Compound BB 0.1, 0.3, 1, 3 mg/kg; Compound AA 10, 25, about 50 mg/kg; vs vehicle
Excerpt: IL-8 chemoattracts and activates neutrophils.

[7] = tested on: CXCL12-induced T cell migration; experiment: CXCL12-induced T-cell migration in CLL PBMCs (transwell); type: cell-based; conditions: Homo sapiens
Method: Specifically, the material used were media (RPMI+0.5% Fetal Bovine Serum+Pen/Strep), total CLL PBMCs (AllCells), CoStar 24-transwell plates ([…]) #3421, BD Cytofix Fixation Buffer (#554655), BD FBS Stain Buffer (BD Biosciences, 554656), Deep 96-well plate (Axygen, P-2ML-SQ-C), rhCXCL12 (R&D, 350-NS-050), CD-19 APC Cy7 (BD #348794 1:20), CD3-PerCPCy5.5 (BD #560835, 1:20), CD5-PE (Biolegend #300608, 1:5), CD4-FITC (BD #561842, 1:20), and CD8-APC (BD #561953, 1:20).
Total CLL human PBMCs were preincubated with Compound AA or BB in media for 45 minutes at 37° C. […] After the 45 minutes of compound preincubation, 500-750K CLL PBMCs were placed in the upper chamber of the transwell insert in a total volume of 100 uL. The cells were allowed to migrate for 2-4 hours at 37° C. The inserts were removed, and 550 uL media from lower chamber were transferred into a deep 96-well plate. The cells were spun at 1280 rpm for 5 minutes and flick media. The cells were resuspended in 400 uL BD Cytofixation buffer and incubated at RT for 10 minutes. 1 mL BD FBS stain buffer was added. The cells were spun at 1280 rpm and fixation buffer was disposed. The cells were resuspended in 100 uL of CD3,4,8,5,19 antibody cocktail made up in BD FBS stain buffer, which was then incubated at room temperature in the dark for 30-60 minutes. 1 mL BD FBS stain buffer was added to each well, which was then spun and flicked. The cells were resuspended in 150 uL FBS stain buffer and transferred to FACS tubes already containing 150 uL FBS stain buffer. Each sample was read on the FACS for 25 seconds. Gate on CD3, 4, 8 and CD19/5 subpopulations individually and calculate average migration index from triplicate samples. See e.g., Borge et al., haematologica 2010, 95(5): 768-775; de Rooij et al., Blood 2012, 119: 2590-2594.

[8] = tested on: T cell activation (IFN-γ in response to ConA); experiment: T cell activation in human whole blood (Con-A, IFN-γ readout); type: cell-based; conditions: 24 hours, read-out: IC50, T cell activation as measured by inhibition of IFN-γ
Method: The purpose of this study is to evaluate the effect of various antigens (Con-A) in T cell activation in Human Whole Blood vs. 1:1 Diluted Blood using test compounds at 24 hour time-point.
T-cell Activation Media includes RPMI-1000 ml, MEM NEAA-10 ml, Sodium Pyruvate (100 mM)-10 ml, Pen Strep-10 ml, 2-Mercaptoethanol-1 ml, and FBS-100 ml. 100 ul of whole blood were plated in 96 well plate. Used only the 60 inside wells and filled the outside with media or PBS. Diluted human whole blood with 5% Serum RPMI 1640 1:1 and plate 100 ul in 96 well plate. Used only the 60 inside wells and filled the outside with media or PBS.
The compound was diluted using DMSO (Sigma hybridmax). For 1000 nM highest concentration starting from a 10 mM stock, added 300 ul of DMSO into deep well plates. To the highest concentration add 10 ul of 10 mM compound stock.
A media plate was prepared from DMSO plate by taking 100 ul and go into 900 ul media in new deep well plate, taping plate, and putting on mixer for 5 minutes.
The rested cell plates were removed from incubator. Added 12 uL of diluted compound from media plate (final DMSO is 1%), and incubated for 45 minutes.
Con-A was prepared as follows: 200 ul stock into 1 ml Media, 100 ul of that into 1 ml Media, 100 ul of that into 1 ml Media. […] This was analyzed after 24 Hours.
10× stock in media, added 12 ul per well. […] Analyzed with multiplex elisa from MSD. […]

LLC tumor brei = LLC tumor brei model, Compound BB with or without cyclophosphamide; type: in vivo, mouse; conditions: Compound BB 15 mg/kg QD PO, cyclophosphamide 50 mg/kg EOD IP
Method: In this experiment, treatment began when tumors reached approx. 150 mm^3—around day 12. Caliper and xenogen images were monitored. Treatment groups n=13-15/group. […] Samples for FACs analysis were collected on day 23 post implant. Using FACS, cells were assayed for the level of CD11b and Gr-1.

Sequence of PI3K-γ (Q9JHG7 whole entry, canonical isoform): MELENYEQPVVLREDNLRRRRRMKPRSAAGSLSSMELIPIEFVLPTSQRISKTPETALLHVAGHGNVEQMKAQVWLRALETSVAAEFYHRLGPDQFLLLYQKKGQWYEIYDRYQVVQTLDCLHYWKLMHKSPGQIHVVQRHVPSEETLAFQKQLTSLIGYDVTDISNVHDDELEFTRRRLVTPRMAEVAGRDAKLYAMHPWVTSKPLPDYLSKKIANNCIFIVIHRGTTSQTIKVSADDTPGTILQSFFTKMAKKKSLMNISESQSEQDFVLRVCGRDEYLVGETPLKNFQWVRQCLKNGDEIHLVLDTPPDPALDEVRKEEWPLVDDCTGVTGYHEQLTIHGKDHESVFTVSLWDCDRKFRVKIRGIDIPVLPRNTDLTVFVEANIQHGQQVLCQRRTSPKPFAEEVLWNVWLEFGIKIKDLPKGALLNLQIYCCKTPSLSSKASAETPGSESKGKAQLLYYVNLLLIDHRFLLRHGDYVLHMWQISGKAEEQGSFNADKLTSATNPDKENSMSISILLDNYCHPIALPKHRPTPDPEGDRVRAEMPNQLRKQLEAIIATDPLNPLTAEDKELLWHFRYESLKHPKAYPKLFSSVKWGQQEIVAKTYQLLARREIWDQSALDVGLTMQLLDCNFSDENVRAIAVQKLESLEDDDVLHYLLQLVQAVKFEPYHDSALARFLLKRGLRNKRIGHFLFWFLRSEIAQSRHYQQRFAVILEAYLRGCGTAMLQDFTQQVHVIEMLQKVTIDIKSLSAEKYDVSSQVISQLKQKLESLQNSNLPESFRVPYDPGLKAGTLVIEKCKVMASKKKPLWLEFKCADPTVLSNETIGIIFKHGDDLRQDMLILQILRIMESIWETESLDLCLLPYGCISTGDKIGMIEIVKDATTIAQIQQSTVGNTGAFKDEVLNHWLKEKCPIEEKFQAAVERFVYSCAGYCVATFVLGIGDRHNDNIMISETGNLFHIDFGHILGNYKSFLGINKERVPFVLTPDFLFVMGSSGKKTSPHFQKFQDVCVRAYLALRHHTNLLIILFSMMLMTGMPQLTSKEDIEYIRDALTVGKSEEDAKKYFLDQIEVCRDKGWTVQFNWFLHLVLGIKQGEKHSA
Sequence of PI3K γ (P48736 whole entry, canonical isoform): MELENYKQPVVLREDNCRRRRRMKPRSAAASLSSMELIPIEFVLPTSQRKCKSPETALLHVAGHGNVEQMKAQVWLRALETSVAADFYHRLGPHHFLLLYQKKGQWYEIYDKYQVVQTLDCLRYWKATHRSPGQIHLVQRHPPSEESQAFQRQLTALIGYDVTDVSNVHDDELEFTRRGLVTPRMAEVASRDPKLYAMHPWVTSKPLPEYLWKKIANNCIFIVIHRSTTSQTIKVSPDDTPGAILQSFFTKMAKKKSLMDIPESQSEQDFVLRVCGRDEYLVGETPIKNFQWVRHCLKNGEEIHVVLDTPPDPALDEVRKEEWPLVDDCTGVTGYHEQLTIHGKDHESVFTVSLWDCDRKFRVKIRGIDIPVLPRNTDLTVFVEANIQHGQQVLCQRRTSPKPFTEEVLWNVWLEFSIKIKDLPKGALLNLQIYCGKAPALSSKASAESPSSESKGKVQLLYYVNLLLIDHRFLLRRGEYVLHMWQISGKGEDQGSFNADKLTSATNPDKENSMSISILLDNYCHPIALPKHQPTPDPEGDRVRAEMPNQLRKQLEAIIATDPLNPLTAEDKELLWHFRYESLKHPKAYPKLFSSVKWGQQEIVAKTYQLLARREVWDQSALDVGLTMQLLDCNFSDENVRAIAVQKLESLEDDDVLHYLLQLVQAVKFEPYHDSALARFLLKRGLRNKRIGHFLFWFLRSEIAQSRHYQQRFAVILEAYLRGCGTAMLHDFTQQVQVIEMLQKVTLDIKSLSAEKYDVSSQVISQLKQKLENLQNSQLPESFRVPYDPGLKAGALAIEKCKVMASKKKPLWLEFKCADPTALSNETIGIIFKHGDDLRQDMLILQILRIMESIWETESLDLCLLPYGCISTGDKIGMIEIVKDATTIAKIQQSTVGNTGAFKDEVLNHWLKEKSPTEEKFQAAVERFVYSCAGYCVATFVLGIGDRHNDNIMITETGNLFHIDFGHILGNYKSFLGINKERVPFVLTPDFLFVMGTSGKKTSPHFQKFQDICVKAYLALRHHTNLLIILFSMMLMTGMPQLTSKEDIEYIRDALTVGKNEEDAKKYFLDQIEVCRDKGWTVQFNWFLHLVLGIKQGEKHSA

## CC[C@H](Nc1ncnc2[nH]cnc12)c1nc2cccc(F)c2c(=O)n1-c1ccccc1 [CAL-101]
[1]; phase 1 trial, patients with poor prognostic characteristics
  clinical activity in CLL: showed activity
[1]; single agent
  clinical activity in mantle cell lymphoma and refractory non Hodgkin's lymphoma: active

## C[C@H](NC(=O)c1c(N)nn2cccnc12)c1cc2cccc(C#Cc3ccn[nH]3)c2c(=O)n1-c1ccccc1 [Compound 43]
PI3K-γ
  RAJI δ/Raw264.7 γ IC50 (selectivity): X (X = 10 to <50)
PI3K-γ; phospho-AKT
  IC50: 1 to 50 nM
PI3K γ
  PI3K δ/PI3K γ IC50 (selectivity): Y (Y = 50 to <850)
PI3K-δ
  IC50: 100 to 500 nM

## Cc1c(C#Cc2cccc3nc([C@H](C)NC(=O)c4c(N)nn5cccnc45)n(-c4ccccc4)c(=O)c23)cnn1C [Compound 88, (S)-2-amino-N-(1-(5-((1,5-dimethyl-1H-pyrazol-4-yl)ethynyl)-4-oxo-3-phenyl-3,4-dihydroquinazolin-2-yl)ethyl)pyrazolo[1,5-a]pyrimidine-3-carboxamide]
[2]; 2 mg/kg PO NMP
  tlast: 8 h
[2]; 7.5 mg/kg PO NMP
  tlast: 24 h
  AUC: 20700 ng·h/mL
[2]; 15 mg/kg PO NMP
  tlast: 24 h
  AUC: 81200 ng·h/mL
[2]; female C57 mice, 2, 7.5 or 15 mg/kg PO
  Stability in serum: good stability in serum

## CC(C)n1c([C@H](C)Nc2ncnc(N)c2C#N)cc2cccc(-c3ccc(=O)n(C)c3)c2c1=O [Compound AA, reference compound]
[3]; highest dose levels, gamma for Compound BB, delta for Compound AA
  Free plasma levels relative to IC90 of the target isoform: equal or greater than the IC90
[3]; 1.5 h (time of LPS challenge)
  Free Plasma Conc (nM): BLQ
[3]; […] (about 4 hours post LPS challenge)
  Free Plasma Conc (nM): BLQ
[4]
  Neutrophil in bronchoalveolar lavage fluid (BALF): reduced neutrophil in bronchoalveolar lavage fluid (BALF)
Human T cells
  inhibition of IFN-γ: highly selective inhibitor
[5]; differentiated and M1 polarized macrophage
  IC50, CXCL12 induced p-AKT: did not significantly inhibit
[5]; differentiated and M2 polarized macrophage
  IC50, CXCL12 induced p-AKT: did not significantly inhibit
[6]
  IL-8 induced neutrophil migration into air pouch: does not inhibit IL-8 induced neutrophil migration
[7]; T-cell subset CD3+, read-out: EC50 (nM), CXCL12 induced T-cell migration
  EC50: 630 ± 71 nM
[7]; T-cell subset CD4+, read-out: EC50 (nM), CXCL12 induced T-cell migration
  EC50: 726 ± 230 nM
[7]; T-cell subset CD8+, read-out: EC50 (nM), CXCL12 induced T-cell migration
  EC50: 423 ± 290 nM
[7]; read-out: EC50, inhibition of CXCL12-induced CD3+ T cell migration (FIG. 8)
  EC50: 694 nM
[8]
  IC50: 3 nM

## O=P1(N(CCCl)CCCl)NCCCO1 (centres unmarked) [cyclophosphamide, reference compound]
LLC tumor brei
  Tumor growth (FIG. 48): reduced tumor growth by about the same amount
